What all share (assay): KinomeScan kinase profiling
Holding throughout (assay type): binding

One test addresses T1, NEK5 (Homo sapiens, UniProt Q6P3R8).
T1 construct: host or cells: T7 phage in E. coli host derived from BL21
An excerpt: (§1) The kinases were ABL1(F317L), ABL1(H396P), ABL1(Q252H), ABL1(Y253F), ADCK3, ADCK4, ALK, ARK5, AXL, BLK, BRSK2, CDK7, CIT, CLK4, CSNK1D, CSNK1E, DAPK1, DAPK3, DCAMKL3, DMPK, EGFR, EGFR(E746-A750DEL), EGFR(G719C), EGFR(G719S), EGFR(L747-E749DEL, A750P), EGFR(L747-S752 DEL, P753S), EGFR(L747-T751DEL, Sin), EGFR(L858R), EGFR(L861Q), EGFR(S752-I759DEL), EPHA5, EPHA6, ERBB2, ERBB4, ERK3, ERK4, FGR, FLT3(D835H), FLT3(D835Y), FLT3(ITD), FLT3(N841 I), FRK, GAK, GCN2(KIN.DOM.2, S808G), HCK, IRAK3, JAK1(KIN.DOM.1), KIT, KIT(D816V), KIT(V559D), KIT(V559D,T670I), LCK, LOK, LTK, LYN, MAP3K3, MAP4K4, MAP4K5, MET, MINK, MKNK1, MKNK2, MST4, MYLK2, PDGFRB, PIM3, PKN2, PRKD1, PRKD2, PRKD3, PRKG1, RIPK2, RPS6KA4(KIN.DOM.2), SIK2, SLK, SNARK, SRC, STK36, TNIK, TNNI3K, TYK2(KIN.DOM.2).
(§2) Kinase assays: Assays were performed as described in Fabian et al. (2005) Nature Biotechnology, vol. 23, p. 329. Kinase-tagged T7 phage strains were grown in parallel in 24 or 96-well blocks in an E. coli host derived from the BL21 strain. E. coli were grown to log-phase and infected with T7 phage from a frozen stock (multiplicity of infection ˜0.1) and incubated with shaking at 32° C. until lysis (˜90 minutes). The lysates were centrifuged and filtered to remove cell debris. […] The liganded beads were blocked with excess biotin and washed with blocking buffer (SeaBlock (Pierce), 1% BSA, 0.05% Tween 20, 1 mM DTT) to remove unbound ligand and to reduce non-specific phage binding.
(§3) Test compounds were prepared as 40× stocks in DMSO and diluted into the aqueous environment. 2.5% DMSO was added to control assays lacking a test compound. All reactions were performed in polystyrene 96-well plates that had been pretreated with blocking buffer in a final volume of 0.04 ml. […] The phage titer in the eluates was measured by quantitative PCR.

For a further test, the target named is T2, CLK1 (Homo sapiens, UniProt P49759).
T2 construct: host or cells: T7 phage in E. coli (BL21-derived)
T2 sequence (P49759 whole entry): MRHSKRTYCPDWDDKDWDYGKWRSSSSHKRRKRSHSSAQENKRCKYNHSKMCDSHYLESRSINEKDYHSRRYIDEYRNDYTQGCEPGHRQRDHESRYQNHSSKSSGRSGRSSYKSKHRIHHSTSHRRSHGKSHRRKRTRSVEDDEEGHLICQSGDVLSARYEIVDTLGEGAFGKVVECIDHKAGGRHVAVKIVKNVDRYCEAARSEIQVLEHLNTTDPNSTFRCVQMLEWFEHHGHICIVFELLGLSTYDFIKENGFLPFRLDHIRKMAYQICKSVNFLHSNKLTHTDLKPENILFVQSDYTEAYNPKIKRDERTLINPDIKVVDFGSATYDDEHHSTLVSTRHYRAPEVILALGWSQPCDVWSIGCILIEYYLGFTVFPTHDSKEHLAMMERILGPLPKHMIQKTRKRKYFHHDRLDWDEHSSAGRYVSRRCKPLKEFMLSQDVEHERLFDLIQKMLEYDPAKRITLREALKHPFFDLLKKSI
Description: as §1, §2, §3

The target of another test is T3, ARK5 (Homo sapiens, UniProt O60285).
T3 construct: purchased Ambit Biosciences Corp (KinomeScan); host or cells: E. coli host derived from the BL21 strain, T7 phage
Description: as §1, §2, §3

Another test concerns the target T4, NLK (Homo sapiens, UniProt Q9UBE8).
T4 construct: host or cells: E. coli host derived from the BL21 strain, infected with T7 phage
Description: as §1, §2, §3

Another test addresses T5, BRAF (Homo sapiens, UniProt P15056).
T5 construct: purchased Ambit Biosciences Corp (KinomeScan); host or cells: E. coli host derived from the BL21 strain, T7 phage
Description: as §1, §2, §3

For another test, the target named is T6, FRK (Homo sapiens, UniProt P42685).
T6 construct: host or cells: E. coli host derived from BL21, infected with T7 phage
T6 sequence (P42685 whole entry): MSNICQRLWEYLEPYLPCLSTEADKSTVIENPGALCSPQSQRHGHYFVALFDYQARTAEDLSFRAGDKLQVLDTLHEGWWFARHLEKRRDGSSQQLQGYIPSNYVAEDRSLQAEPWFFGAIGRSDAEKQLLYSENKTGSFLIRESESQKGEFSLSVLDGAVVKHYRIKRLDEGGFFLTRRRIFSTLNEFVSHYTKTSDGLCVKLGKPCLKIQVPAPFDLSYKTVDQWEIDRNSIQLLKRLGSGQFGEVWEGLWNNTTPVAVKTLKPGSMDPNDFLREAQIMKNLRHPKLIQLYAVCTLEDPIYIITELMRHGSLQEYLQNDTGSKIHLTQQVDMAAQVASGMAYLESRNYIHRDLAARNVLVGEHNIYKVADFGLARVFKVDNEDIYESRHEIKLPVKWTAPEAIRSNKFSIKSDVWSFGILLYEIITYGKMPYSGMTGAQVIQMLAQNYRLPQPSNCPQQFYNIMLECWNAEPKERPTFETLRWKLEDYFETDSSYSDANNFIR
Description: as §1, §2, §3

A further test concerns the target T7, BRK (Homo sapiens, UniProt Q13882).
T7 construct: purchased Ambit Biosciences Corp (KinomeScan); host or cells: E. coli host derived from the BL21 strain, T7 phage
Description: as §1, §2, §3

Test [1] has as its target T8, RPS6KA2 (Kin.Dom.-2-C-terminal) (Homo sapiens, UniProt Q15349).
T8 construct: RPS6KA2 (Kin.Dom.-2-C-terminal); host or cells: E. coli host derived from BL21, T7 phage lysate
Description: as §1, §2, §3

In test [2] the target is T9, RPS6KA4 (Kin.Dom.-1-N-terminal) (Homo sapiens, UniProt O75676).
T9 construct: RPS6KA4 (Kin.Dom.-1-N-terminal); host or cells: E. coli host derived from BL21, T7 phage lysate
Description: as §1, §2, §3

In the next test the target is T10, CAMKK1 (Homo sapiens, UniProt Q8N5S9).
T10 construct: host or cells: T7 phage in E. coli (BL21-derived)
T10 sequence (Q8N5S9 whole entry): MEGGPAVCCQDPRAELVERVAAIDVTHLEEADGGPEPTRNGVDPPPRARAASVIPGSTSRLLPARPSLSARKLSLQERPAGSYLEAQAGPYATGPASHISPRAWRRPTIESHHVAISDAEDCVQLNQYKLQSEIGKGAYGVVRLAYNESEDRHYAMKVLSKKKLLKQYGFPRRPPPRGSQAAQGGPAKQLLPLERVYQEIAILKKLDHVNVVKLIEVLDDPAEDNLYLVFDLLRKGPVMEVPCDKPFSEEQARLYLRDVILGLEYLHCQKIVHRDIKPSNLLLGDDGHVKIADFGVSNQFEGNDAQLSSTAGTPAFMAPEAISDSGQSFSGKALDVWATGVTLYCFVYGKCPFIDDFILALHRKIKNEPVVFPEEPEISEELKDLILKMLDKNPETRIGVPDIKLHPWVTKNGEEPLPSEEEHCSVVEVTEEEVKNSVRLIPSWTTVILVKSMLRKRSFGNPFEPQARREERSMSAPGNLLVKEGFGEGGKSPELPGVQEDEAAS
Description: as §1, §2, §3

Another test deals with T11, SgK085 (Homo sapiens, UniProt Q86YV6).
T11 construct: host or cells: E. coli host derived from the BL21 strain, T7 phage lysate
Description: as §1, §2, §3

The target in a further test is T12, FLT4 (Homo sapiens, UniProt P35916).
T12 construct: host or cells: E. coli host derived from BL21, infected with T7 phage
Description: as §1, §2, §3

In the next test the target is T13, CSNK1D (Homo sapiens, UniProt P48730).
T13 construct: host or cells: T7 phage in E. coli (BL21-derived)
T13 sequence (P48730 whole entry): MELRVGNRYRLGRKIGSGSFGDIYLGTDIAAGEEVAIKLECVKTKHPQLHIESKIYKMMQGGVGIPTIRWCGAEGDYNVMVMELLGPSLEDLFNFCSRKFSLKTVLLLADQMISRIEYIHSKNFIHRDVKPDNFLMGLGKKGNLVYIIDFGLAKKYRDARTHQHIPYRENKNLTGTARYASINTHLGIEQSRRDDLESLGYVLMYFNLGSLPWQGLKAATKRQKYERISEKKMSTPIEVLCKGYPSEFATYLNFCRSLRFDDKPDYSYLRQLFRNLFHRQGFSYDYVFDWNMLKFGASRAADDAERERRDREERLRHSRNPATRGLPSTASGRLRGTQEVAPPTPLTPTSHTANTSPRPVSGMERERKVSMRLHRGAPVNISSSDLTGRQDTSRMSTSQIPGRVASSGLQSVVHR
Description: as §1, §2, §3

In the next test the target is T14, BRSK1 (Homo sapiens, UniProt Q8TDC3).
T14 construct: purchased Ambit Biosciences Corp (KinomeScan); host or cells: E. coli host derived from the BL21 strain, T7 phage
T14 sequence (Q8TDC3 whole entry): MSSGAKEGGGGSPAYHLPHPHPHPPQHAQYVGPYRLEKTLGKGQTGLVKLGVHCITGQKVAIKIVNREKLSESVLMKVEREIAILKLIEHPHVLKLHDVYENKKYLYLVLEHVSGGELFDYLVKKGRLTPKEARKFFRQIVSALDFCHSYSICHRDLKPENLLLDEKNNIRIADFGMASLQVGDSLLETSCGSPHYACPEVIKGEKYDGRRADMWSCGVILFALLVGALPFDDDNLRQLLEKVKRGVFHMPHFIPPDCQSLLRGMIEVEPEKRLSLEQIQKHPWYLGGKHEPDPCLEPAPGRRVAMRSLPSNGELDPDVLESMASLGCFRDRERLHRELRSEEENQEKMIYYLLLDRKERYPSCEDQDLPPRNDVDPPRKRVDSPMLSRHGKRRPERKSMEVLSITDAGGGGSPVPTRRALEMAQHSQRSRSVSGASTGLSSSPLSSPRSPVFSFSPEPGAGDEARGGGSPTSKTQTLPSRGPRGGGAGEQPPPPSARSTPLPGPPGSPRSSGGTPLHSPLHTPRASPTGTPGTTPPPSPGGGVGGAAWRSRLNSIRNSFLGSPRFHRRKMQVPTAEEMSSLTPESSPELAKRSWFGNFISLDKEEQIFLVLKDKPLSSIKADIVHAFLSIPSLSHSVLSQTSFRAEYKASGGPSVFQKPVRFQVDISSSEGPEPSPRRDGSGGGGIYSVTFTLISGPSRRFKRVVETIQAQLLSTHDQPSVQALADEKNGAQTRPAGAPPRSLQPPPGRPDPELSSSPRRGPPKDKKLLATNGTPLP
Description: as §1, §2, §3

Another test concerns the target T15, KIT (V559D) (Homo sapiens, UniProt P10721, V559D).
T15 construct: host or cells: T7 phage in E. coli host derived from BL21
Description: as §1, §2, §3

Another test deals with T16, WEE2 (Homo sapiens, UniProt P0C1S8).
T16 construct: purchased Ambit Biosciences Corp (KinomeScan); host or cells: E. coli host derived from the BL21 strain (T7 phage lysate)
Description: as §1, §2, §3

For another test, the target named is T17, PRKCQ (Homo sapiens, UniProt Q04759).
T17 construct: purchased Ambit Biosciences Corp (KinomeScan); host or cells: E. coli host derived from BL21, infected with T7 phage
Description: as §1, §2, §3

The target in a further test is T18, p38-beta (Homo sapiens, UniProt Q15759).
T18 construct: host or cells: E. coli host derived from the BL21 strain, infected with T7 phage
T18 sequence (Q15759 whole entry): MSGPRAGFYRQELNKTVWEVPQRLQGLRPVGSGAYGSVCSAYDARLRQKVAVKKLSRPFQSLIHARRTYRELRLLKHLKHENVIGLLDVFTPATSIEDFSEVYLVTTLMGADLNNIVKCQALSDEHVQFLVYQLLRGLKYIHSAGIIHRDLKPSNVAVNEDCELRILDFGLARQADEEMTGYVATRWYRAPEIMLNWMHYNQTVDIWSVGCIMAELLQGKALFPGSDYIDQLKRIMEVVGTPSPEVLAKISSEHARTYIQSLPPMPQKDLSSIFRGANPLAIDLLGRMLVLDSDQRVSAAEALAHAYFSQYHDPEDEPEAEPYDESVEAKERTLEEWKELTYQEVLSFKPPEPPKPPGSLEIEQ
Description: as §1, §2, §3

The next test has as its target T19, CDK7 (Homo sapiens, UniProt P50613).
T19 construct: host or cells: T7 phage in E. coli (BL21-derived)
Description: as §1, §2, §3

The target of the next test is T20, LOK (Homo sapiens, UniProt O94804).
T20 construct: host or cells: E. coli derived from BL21, infected with T7 phage
Description: as §1, §2, §3

The target in another test is T21, PCTK3 (Homo sapiens, UniProt Q07002).
T21 construct: host or cells: E. coli host derived from the BL21 strain, infected with T7 phage
Description: as §1, §2, §3

Another test has as its target T22, ALK (Homo sapiens, UniProt Q9UM73).
T22 construct: host or cells: E. coli host derived from BL21 (T7 phage lysate)
Description: as §1, §2, §3

Each structure is given as a SMILES string.

T7 sequence (Q13882 whole entry): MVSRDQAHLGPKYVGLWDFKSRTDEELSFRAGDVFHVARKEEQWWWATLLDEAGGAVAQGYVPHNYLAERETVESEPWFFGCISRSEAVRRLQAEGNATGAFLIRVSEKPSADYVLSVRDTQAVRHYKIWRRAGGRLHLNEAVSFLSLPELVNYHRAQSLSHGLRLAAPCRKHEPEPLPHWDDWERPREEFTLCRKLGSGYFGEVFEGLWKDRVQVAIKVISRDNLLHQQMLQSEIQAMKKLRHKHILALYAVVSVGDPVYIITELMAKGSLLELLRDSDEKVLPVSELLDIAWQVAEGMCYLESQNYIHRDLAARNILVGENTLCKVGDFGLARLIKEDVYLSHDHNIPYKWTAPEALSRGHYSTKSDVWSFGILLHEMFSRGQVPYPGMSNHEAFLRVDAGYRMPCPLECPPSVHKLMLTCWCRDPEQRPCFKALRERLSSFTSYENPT
T4 sequence (Q9UBE8 whole entry): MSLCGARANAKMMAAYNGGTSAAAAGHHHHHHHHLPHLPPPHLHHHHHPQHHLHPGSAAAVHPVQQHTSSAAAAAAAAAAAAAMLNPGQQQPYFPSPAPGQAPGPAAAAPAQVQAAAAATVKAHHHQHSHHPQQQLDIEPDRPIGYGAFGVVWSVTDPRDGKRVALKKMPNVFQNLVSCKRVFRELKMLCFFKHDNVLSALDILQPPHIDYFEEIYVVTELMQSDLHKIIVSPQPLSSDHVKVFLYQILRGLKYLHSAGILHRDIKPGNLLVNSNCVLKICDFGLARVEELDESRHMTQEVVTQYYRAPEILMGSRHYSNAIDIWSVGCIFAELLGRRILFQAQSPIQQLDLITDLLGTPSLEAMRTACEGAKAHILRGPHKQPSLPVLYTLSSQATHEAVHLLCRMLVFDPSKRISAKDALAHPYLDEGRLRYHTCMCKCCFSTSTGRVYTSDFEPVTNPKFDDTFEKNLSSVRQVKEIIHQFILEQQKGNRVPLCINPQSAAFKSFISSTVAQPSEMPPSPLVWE
T1 sequence (Q6P3R8 whole entry): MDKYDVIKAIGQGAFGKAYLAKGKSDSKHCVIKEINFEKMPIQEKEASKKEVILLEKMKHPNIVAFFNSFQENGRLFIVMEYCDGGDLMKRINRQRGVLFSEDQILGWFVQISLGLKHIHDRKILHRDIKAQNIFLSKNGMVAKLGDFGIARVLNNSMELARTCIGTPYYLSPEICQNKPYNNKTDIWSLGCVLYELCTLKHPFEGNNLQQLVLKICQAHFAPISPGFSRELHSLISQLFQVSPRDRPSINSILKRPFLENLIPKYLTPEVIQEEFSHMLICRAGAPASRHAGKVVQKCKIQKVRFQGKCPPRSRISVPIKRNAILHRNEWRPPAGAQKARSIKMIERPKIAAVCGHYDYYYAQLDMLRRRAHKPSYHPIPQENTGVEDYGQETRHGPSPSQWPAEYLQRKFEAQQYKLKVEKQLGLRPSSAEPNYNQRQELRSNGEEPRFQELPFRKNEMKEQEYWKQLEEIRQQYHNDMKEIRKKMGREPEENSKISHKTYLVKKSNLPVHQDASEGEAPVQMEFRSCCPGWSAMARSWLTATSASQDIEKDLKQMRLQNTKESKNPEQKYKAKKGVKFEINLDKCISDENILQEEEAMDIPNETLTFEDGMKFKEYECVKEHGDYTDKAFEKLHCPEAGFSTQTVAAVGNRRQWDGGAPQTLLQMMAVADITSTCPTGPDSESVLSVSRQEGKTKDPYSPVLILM
T8 sequence (Q15349 415-672 limits assumed): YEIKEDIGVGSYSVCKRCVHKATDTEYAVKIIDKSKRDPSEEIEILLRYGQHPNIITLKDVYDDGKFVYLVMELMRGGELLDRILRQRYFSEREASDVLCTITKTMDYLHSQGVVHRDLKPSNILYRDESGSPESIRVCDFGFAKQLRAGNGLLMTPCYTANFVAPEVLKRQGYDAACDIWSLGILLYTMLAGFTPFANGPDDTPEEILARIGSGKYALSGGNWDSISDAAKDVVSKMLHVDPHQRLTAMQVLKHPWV

On to `C#Cc1cccc(Nc2ncnc3cc(OC)c(OCCCN4CCOCC4)cc23)c1` [NRC-2694, N-(3-ethylnylphenyl)-7-methoxy-6-[3-(4-morpholinyl)propoxy]-4-quinazolinamine], for which the “% Ctrl @ 10000 nM” value at NEK5 amounted to 94 % Ctrl; on CLK1, 31 % Ctrl; at ARK5, 29 % Ctrl; on NLK, 55 % Ctrl; at BRAF, 81 % Ctrl; on FRK, 10 % Ctrl. In addition, the “% Ctrl @ 10000 nM” value at BRK was determined as 46 % Ctrl; in test [1], 78 % Ctrl; in test [2] it was 84 % Ctrl; on CAMKK1 it was 71 % Ctrl; on SgK085, 84 % Ctrl; on FLT4, 66 % Ctrl. Besides, the “% Ctrl @ 10000 nM” value was found to be 25 % Ctrl at CSNK1D; 53 % Ctrl on BRSK1; 17 % Ctrl at KIT (V559D); 53 % Ctrl at WEE2; 83 % Ctrl on PRKCQ; 100 % Ctrl on p38-beta. For the same molecule, the “% Ctrl @ 10000 nM” value on CDK7 stood at 0.55 % Ctrl; at LOK it was 0 % Ctrl; on PCTK3, 82 % Ctrl; at ALK, 10 % Ctrl.

Source of the values: patent publication US9050341B2, “Methods of treating drug resistant and other tumors by administering 6,7-dialkoxy quinazoline derivatives” (NATCO PHARMA LIMITED, priority 2009, dated 2015).
